Measurements taken from patent publication US20250289789A1, “REVERSIBLE LYSINE COVALENT MODIFIERS OF CDK2 AND USES THEREOF” (Terremoto Biosciences, Inc., priority 2023, published 2025).

Key:
Type in all cases: cell-based
[1] = molecular target: T1, CDK1-NanoLuc fusion with CCNB1 in 293T or 293 cells (Homo sapiens, UniProt P06493); assay: NanoBRET Target Engagement (TE) Intracellular Kinase Assay, CDK1/CCNB1; details: NanoBRET TE intracellular kinase assay, 2-hour incubation, read-out: NanoBRET-CDK1/B1 IC50
T1 construct: host or cells: 293T (ATCC CRL-3216) or 293 (ATCC CRL-1573)
T1 sequence (P06493 whole entry, the tested form may be a part): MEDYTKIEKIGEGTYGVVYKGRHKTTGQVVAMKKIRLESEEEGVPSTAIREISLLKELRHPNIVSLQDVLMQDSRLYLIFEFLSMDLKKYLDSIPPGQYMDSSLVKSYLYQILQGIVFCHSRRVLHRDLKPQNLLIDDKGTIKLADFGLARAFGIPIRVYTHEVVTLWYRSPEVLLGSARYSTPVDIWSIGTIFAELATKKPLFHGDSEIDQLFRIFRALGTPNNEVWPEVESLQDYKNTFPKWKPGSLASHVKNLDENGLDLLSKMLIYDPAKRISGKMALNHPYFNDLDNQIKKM
T1 sequence (P14635 whole entry partner, the tested form may be a part): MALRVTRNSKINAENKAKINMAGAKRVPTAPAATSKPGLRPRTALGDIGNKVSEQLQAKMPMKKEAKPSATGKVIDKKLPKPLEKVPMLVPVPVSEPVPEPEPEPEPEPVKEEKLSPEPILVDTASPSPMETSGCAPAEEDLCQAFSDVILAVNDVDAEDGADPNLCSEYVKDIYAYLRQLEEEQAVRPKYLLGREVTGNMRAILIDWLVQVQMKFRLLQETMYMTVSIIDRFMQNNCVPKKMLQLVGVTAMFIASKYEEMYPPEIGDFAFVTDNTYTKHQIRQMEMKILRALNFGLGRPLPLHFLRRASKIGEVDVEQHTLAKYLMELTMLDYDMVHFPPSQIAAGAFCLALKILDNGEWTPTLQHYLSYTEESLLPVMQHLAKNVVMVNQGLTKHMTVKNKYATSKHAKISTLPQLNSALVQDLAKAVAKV
Protocol: Inhibitory effects of compounds were measured in NanoBRET TE Intracellular Kinase Assay. 293T (ATCC; CRL-3216) or 293 (ATCC; CRL-1573) cell lines were maintained in 90% DMEM and 10% fetal bovine serum at 37° C., 5% CO2, and 95% relative humidity. Cells were trypsinized and resuspended in assay media (99% Opti-MEM I Reduced Serum Medium, no phenol red, and 1% fetal bovine serum). Cells were co-transfected with 1 μg/mL of CDK-NanoLuc Fusion Vector (Promega; NV2701 for CDK1, NV2781 for CDK2, NV2811 for CDK4, NV2841 for CDK6) and 1 μg/mL of the corresponding Cyclin Expression Vector (Promega; NV2601 for CCNB1, NV2641 for CCNE1, NV2621 for CCND1, NV2631 for CCND3) using FuGENE HD Transfection Reagent (Promega; E2311). 40 uL/well of cells with transfection mixture were seeded in 384-well plates at 1.25×10^5 to 2×10^5 cells/mL and incubated for 24 hours at 37° C., 5% CO2, and 95% relative humidity. On the next day, 100 nL of 100 μM NanoBRET Tracer K-10 (Promega; N2640) and 40 nL of 1000× test compounds prepared in DMSO were added to the cells in each well of 384-well plates for a 2-hour incubation at 37° C., 5% CO2, and 95% relative humidity. 20 uL/well of 3× Intracellular TE Nano-Glo Substrate/Inhibitor (Promega; N2162) were added to 384-well plates and incubated for 3 minutes at room temperature. NanoBRET signals (donor emission wavelength at 450 nm, acceptor emission wavelength at 610 nm) were measured using Envision plate reader (PerkinElmer). NanoBRET ratio was calculated by: BRET Ratio=raw signal for acceptor/raw signal for donor. Dose response curve normalized to DMSO control was plotted using four-parameter logistic model for IC50 calculation.

[2] = molecular target: T2, CDK2-NanoLuc fusion with CCNE1 in 293T or 293 cells (Homo sapiens, UniProt P24941); assay: NanoBRET Target Engagement (TE) Intracellular Kinase Assay, CDK2/CCNE1; details: NanoBRET TE intracellular kinase assay, 2-hour incubation, read-out: NanoBRET-CDK2/E1 IC50
T2 construct: host or cells: 293T (ATCC CRL-3216) or 293 (ATCC CRL-1573)

[3] = system: Phospho-Rb Ser807/811 in OVCAR3 cells; assay: OVCAR3 Phospho-Rb Ser807/811 HTRF assay; details: Homo sapiens, OVCAR-3, 1 h, OVCAR3 cells, Phospho-Rb Ser807/811 HTRF, 1 hour incubation; read-out: pRb-OVCAR3 IC50
Protocol: Cells were trypsinized and resuspended in 1 mM hydroxyurea (Sigma; H8627), 90% RPMI and 10% fetal bovine serum. […] Dose response curve normalized to DMSO control was plotted using four-parameter logistic model for IC50 calculation.

[4] = molecular target: T3, CDK4-NanoLuc fusion with CCND1 in 293T or 293 cells (Homo sapiens, UniProt P11802); assay: NanoBRET Target Engagement (TE) Intracellular Kinase Assay, CDK4/CCND1; details: NanoBRET TE intracellular kinase assay, 2-hour incubation, read-out: NanoBRET-CDK4/D1 IC50
T3 construct: host or cells: 293T (ATCC CRL-3216) or 293 (ATCC CRL-1573)
T3 sequence (P11802 whole entry, the tested form may be a part): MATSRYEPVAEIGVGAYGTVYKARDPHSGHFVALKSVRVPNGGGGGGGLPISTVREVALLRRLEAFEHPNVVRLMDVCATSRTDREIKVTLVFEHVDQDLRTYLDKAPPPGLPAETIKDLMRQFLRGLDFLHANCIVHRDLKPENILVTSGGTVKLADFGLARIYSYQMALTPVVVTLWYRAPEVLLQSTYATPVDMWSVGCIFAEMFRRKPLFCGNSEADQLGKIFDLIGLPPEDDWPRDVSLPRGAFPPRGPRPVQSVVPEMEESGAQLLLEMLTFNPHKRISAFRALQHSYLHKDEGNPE
T3 sequence (P24385 whole entry partner, the tested form may be a part): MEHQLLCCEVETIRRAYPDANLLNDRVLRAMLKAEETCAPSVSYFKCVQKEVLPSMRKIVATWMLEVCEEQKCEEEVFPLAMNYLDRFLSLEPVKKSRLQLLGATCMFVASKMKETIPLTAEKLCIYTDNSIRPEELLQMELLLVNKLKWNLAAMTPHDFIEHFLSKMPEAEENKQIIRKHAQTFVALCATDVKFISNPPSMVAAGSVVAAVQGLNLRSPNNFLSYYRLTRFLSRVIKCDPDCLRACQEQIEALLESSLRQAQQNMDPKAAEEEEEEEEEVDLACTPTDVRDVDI

Structure (SMILES)	IC50 [1]	IC50 [2]	IC50 [3]	IC50 [4]
CC(C)NC(=O)O[C@@H]1CC[C@H](c2cc(NC(=O)c3cc(CCc4cccc(O)c4C=O)nn3C)n[nH]2)C1 [Compound 30, (1R,3S)-3-(5-{5-[2-(2-formyl-3-hydroxyphenyl)ethyl]-2-methylpyrazole-3-amido}-2H-pyrazol-3-yl)cyclopentyl N-isopropylcarbamate]	491 nM	17.8 nM	2740 nM	3160 nM
CC(C)NC(=O)O[C@@H]1CC[C@H](c2cc(NC(=O)c3cc(-c4ccc(O)c(C=O)c4)nn3C)n[nH]2)C1 [Compound 31, (1R,3S)-3-{5-[5-(3-formyl-4-hydroxyphenyl)-2-methylpyrazole-3-amido]-2H-pyrazol-3-yl}cyclopentyl N-isopropylcarbamate]	20.4 nM	5.46 nM	214 nM	3070 nM
CC(C)NC(=O)O[C@@H]1CC[C@H](c2cc(NC(=O)CCOc3cccc(O)c3C=O)n[nH]2)C1 [Compound 34, (1R,3S)-3-{5-[3-(2-formyl-3-hydroxyphenoxy)propanamido]-2H-pyrazol-3-yl}cyclopentyl N-isopropylcarbamate; trifluoroacetic acid]	98.9 nM	5.34 nM	552 nM	196 nM
CC(C)NC(=O)O[C@@H]1CC[C@H](c2cc(NC(=O)OCCc3cccc(O)c3C=O)n[nH]2)C1 [Compound 35, 2-(2-formyl-3-hydroxyphenyl)ethyl N-{5-[(1S,3R)-3-[(isopropylcarbamoyl)oxy]cyclopentyl]-1H-pyrazol-3-yl}carbamate; trifluoroacetic acid]	537 nM	23.9 nM	4130 nM	3960 nM
CC(C)NC(=O)O[C@@H]1CC[C@H](c2cc(NC(=O)COCc3cccc(O)c3C=O)n[nH]2)C1 [Compound 36, (1R,3S)-3-(5-{2-[(2-formyl-3-hydroxyphenyl)methoxy]acetamido}-2H-pyrazol-3-yl)cyclopentyl N-isopropylcarbamate; trifluoroacetic acid]	82.2 nM	8.17 nM	702 nM	1910 nM
CC(=O)Nc1cc(C(=O)Nc2cc([C@H]3CC[C@@H](OC(=O)NC(C)C)C3)[nH]n2)ccc1C=O [Compound 37, (1R,3S)-3-(3-(3-acetamido-4-formylbenzamido)-1H-pyrazol-5-yl)cyclopentyl isopropylcarbamate]	176 nM	15.6 nM	344 nM	128 nM
CC(=O)Nc1ccc(C(=O)Nc2cc([C@H]3CC[C@@H](OC(=O)NC(C)C)C3)[nH]n2)cc1C=O [Compound 38, (1R,3S)-3-[5-(4-acetamido-3-formylbenzamido)-2H-pyrazol-3-yl]cyclopentyl N-isopropylcarbamate]	264 nM	10.6 nM	542 nM	576 nM
CC(C)NC(=O)O[C@@H]1CC[C@H](c2cc(NC(=O)c3ccc(C=O)c4[nH]ncc34)n[nH]2)C1 [Compound 39, (1R,3S)-3-[5-(7-formyl-1H-indazole-4-amido)-2H-pyrazol-3-yl]cyclopentyl N-isopropylcarbamate]	351 nM	24.7 nM	1130 nM	474 nM
CC(C)NC(=O)O[C@@H]1CC[C@H](c2cc(NC(=O)c3cc(C=O)c4[nH]ncc4c3)n[nH]2)C1 [Compound 40, (1R,3S)-3-(3-(7-formyl-1H-indazole-5-carboxamido)-1H-pyrazol-5-yl)cyclopentyl isopropylcarbamate]	275 nM	24.4 nM	796 nM	1460 nM
CC(C)NC(=O)O[C@@H]1CC[C@H](c2cc(NC(=O)c3cc(-c4cccc(NS(C)(=O)=O)c4C=O)nn3C)n[nH]2)C1 [Compound 41, (1R,3S)-3-{5-[5-(2-formyl-3-methanesulfonamidophenyl)-2-methylpyrazole-3-amido]-2H-pyrazol-3-yl}cyclopentyl N-isopropylcarbamate; trifluoroacetic acid]	20.5 nM	5.32 nM	272 nM	3060 nM
CC(C)NC(=O)O[C@@H]1CC[C@H](c2cc(NC(=O)c3cc(-c4cc(F)cc(O)c4C=O)nn3C)n[nH]2)C1 [Compound 42, (1R,3S)-3-{5-[5-(5-fluoro-2-formyl-3-hydroxyphenyl)-2-methylpyrazole-3-amido]-2H-pyrazol-3-yl}cyclopentyl N-isopropylcarbamate; trifluoroacetic acid]	10.6 nM	5.5 nM	176 nM	2680 nM
CC(C)NC(=O)O[C@@H]1CC[C@H](c2cc(NC(=O)COc3ccc(F)c(O)c3C=O)n[nH]2)C1 [Compound 43, (1R,3S)-3-{5-[2-(4-fluoro-2-formyl-3-hydroxyphenoxy)acetamido]-2H-pyrazol-3-yl}cyclopentyl N-isopropylcarbamate; trifluoroacetic acid]	51.2 nM	27.2 nM	212 nM	> 10000 nM
CC(C)NC(=O)O[C@@H]1CC[C@H](c2cc(NC(=O)c3cc(-c4cnccc4C=O)nn3C)n[nH]2)C1 [Compound 44, (1R,3S)-3-(3-(3-(4-formylpyridin-3-yl)-1-methyl-1H-pyrazole-5-carboxamido)-1H-pyrazol-5-yl)cyclopentyl isopropylcarbamate; trifluoroacetic acid]	168 nM	6.37 nM	485 nM	1550 nM
CC(C)NC(=O)O[C@@H]1CC[C@H](c2cc(NC(=O)COc3cc(C#N)cc(O)c3C=O)n[nH]2)C1 [Compound 47, 1R,3S)-3-(3-(2-(5-cyano-2-formyl-3-hydroxyphenoxy)acetamido)-1H-pyrazol-5-yl)cyclopentyl isopropylcarbamate]	224 nM	98.9 nM	1170 nM	9430 nM
COc1cc(O)c(C=O)c(-c2cc(C(=O)Nc3cc([C@H]4CC[C@@H](OC(=O)NC(C)C)C4)[nH]n3)n(C)n2)c1 [Compound 48, (1R,3S)-3-{5-[5-(2-formyl-3-hydroxy-5-methoxyphenyl)-2-methylpyrazole-3-amido]-2H-pyrazol-3-yl}cyclopentyl N-isopropylcarbamate; trifluoroacetic acid]	10.8 nM	2.28 nM	125 nM	848 nM
Cc1nc(-c2cccc(O)c2C=O)sc1C(=O)Nc1cc([C@H]2CC[C@@H](OC(=O)NC(C)C)C2)[nH]n1 [Compound 53, (1R,3S)-3-(3-(2-(2-formyl-3-hydroxyphenyl)-4-methylthiazole-5-carboxamido)-1H-pyrazol-5-yl)cyclopentyl isopropylcarbamate]	21.7 nM	9.39 nM	361 nM	3660 nM
CC(C)NC(=O)O[C@@H]1CC[C@H](c2cc(NC(=O)c3cn(-c4cccc(O)c4C=O)nc3C(F)F)n[nH]2)C1 [Compound 54, (1R,3S)-3-(3-(3-(difluoromethyl)-1-(2-formyl-3-hydroxyphenyl)-1H-pyrazole-4-carboxamido)-1H-pyrazol-5-yl)cyclopentyl isopropylcarbamate]	175 nM	23.4 nM	1690 nM	> 10000 nM
